Results on 4 compounds are retold here after patent US20100004159A1, “SUBSTITUTED IMIDAZOLONE DERIVATIVES, PREPARATIONS AND USES” (GENFIT, priority 2006, published 2010).

Data set [1] concerns the target T1, angiotensin II AT1 receptor (Oryctolagus cuniculus, UniProt P34976).
T1 construct: tissue CEREP; host or cells: rabbit thoracic aorta rings
T1 sequence (P34976 1-359): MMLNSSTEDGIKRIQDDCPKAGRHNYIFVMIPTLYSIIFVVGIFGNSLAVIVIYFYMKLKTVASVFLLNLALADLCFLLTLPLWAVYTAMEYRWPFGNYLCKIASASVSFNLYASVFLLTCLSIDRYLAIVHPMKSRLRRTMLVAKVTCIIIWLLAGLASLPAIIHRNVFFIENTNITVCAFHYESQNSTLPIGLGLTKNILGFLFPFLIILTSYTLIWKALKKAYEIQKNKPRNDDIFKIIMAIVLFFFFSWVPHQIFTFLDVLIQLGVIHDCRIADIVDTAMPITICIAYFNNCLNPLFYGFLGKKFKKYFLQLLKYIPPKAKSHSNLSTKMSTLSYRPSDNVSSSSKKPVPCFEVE
Put plainly: Ex vivo agonist/antagonist activity on isolated rabbit thoracic aorta rings. Particulars: 0.3, 3 and 30 μM; for agonist activity (contraction): non-treated rabbit thoracic aorta; for antagonist activity (inhibition of contractile response to angiotensin II): rabbit thoracic aorta previously exposed to angiotensin II 0.003 μM. As to the method:
This activity is either agonist or antagonist and was evaluated ex vivo on isolated organs. Agonist activity corresponds to tissue contraction. Antagonist activity corresponds to tissue dilatation.
The ex vivo test was performed at the CEREP (Celle L'Evescault, France (86)) following a protocol based on Pendleton et al. (Pendleton R G et al.,1989). Rabbit thoracic aorta rings with intact endothelium were suspended in baths for organs containing an oxygenated physiologic saline solution (95% O2 and 5% CO2) and preheated (37° C.) having the following composition (mM): NaCl 118.0, KCl 4.7, MgSO4 1.2, CaCl2 2.5, KH2PO4 1.2, NaHCO3 25.0, and glucose 11.0 (pH 7.4).
Benextramine (1 μM), propranolol (1 μM), pyrilamine (1 μM), atropine (1 μM), methysergide (1 μM), and captopril (0.1 μM) were also used in all carried out experiments to block respectively α-adrenergic, β-adrenergic, histaminic H1 muscarinic, and 5-HT2 receptors as well as to prevent peptide degradation. The tissues were bound to a force sensor suitable for isometric tension recording. They were stretched to a resting tension of 4 g, then stabilized for 60 minutes. During the stabilization, they were washed several times and the tension was adjusted. The experiments were carried out using semi-automatic systems of isolated organs with eight organ baths and multichannel data acquisition.
The tissues were exposed to a submaximal concentration of the reference agonist (angiotensin II at 0.003 μM) to verify the response and obtain a control contractile response.
After several washing operations and after having recovered the basal tone, the tissues were exposed to increasing concentrations of compounds according to the invention or the same agonist. The different concentrations were added cumulatively, each one was left in contact with the tissues until a stable response was reached and for a maximum of 30 minutes. If an agonist type response (contraction) was registered, the reference antagonist (Saralasine at 0.01 μM) was tested regarding the highest concentration of the compounds according to the invention to confirm the involvement of the AT1 receptors in the response.
After stabilization of the contraction induced by angiotensin II, increasing concentrations of compounds according to the invention or of the reference antagonist (Saralasine) were added cumulatively. Each concentration was left in contact with the tissues until a stable response was observed and for a maximum of 30 minutes.
The inhibiting effect of the compounds according to the invention on the contraction induced by the angiotensin 11 indicates antagonist activity on AT1 receptors.

The subject of the next data set is PPARs target genes. As to the kind of experiment: Expression of PPAR target genes by quantitative RT-PCR in db/db mouse tissue. Format: in vivo. Particulars: db/db mice, 50 mpk for 28 days. The protocol: Samples of hepatic tissue and adipose epididymal tissue were taken and frozen immediately in liquid nitrogen then conserved at −80° C. for later analysis.
Total RNA was extracted from liver fragments by using a NucleoSpine 96 RNA kit (Macherey Nagel, Hoerdt, France) according to the manufacturer's instructions.
The total RNA of the adipose tissue was extracted from tissue fragments with a method using guanidine thiocyanate. The tissues were briefly homogenized in 5 mL of a lysis buffer (guanidine thiocyanate 4M, EDTA pH8 10 mM, Tris HCl pH 7.5 50 mM and b-mercaptoethanol 1.4%) using polytron. To separate the layers, 500 μL of sodium acetate 2M pH4, 5 mL of phenol, and 2 mL of a mixture of chloroform/isoamylic alcohol (49:1) were added. After centrifugation, the aqueous layer was collected and the RNA was precipitated in the presence of isopropanol. After a second precipitation, the RNA was washed with ethanol 70°, dried, then suspended again in an volume of water free of RNase. A step of purification/DNase I treatment of the RNA was then carried out by using NucleoSpin® 96 RNA kit (Macherey-Nagel) according to the manufacturer's instructions. 1 μg of total RNA (quantified by using the Ribogreen RNA quantification kit (Molecular Probes)) was then reverse-transcribed into cDNA by means of a 1 hour reaction at 37° C. in a total volume of 20 μl containing a buffer 1× (Sigma), 1.5 mM of DTT, 0.18 mM, of dNTPs (Promega), 200 ng of pdN6 (Amersham), 30 U of RNase inhibitor (Sigma), and 1 μl of MMLV-RT (Sigma). The quantitative PCR experiments were carried out using the MyiQ Single-Color Real-Time PCR Detection System (Biorad, Marnes-la-Coquette, France) and were performed using the iQ SYBR Green Supermix kit according to the manufacturer's recommendations, in 96-well plates in 5 μl of a diluted reverse transcription solution at a hybridization temperature of 55° C. Primer pairs specific to the studied genes were used:
The quantity of emitted fluorescence is directly proportional to the quantity of cDNA present at the beginning of the reaction and amplified during the PCR. For each target studied, a range of solutions is performed with successive dilutions of a mixture made up of a few μl of different reverse-transcription solutions. The relative levels of expression of each target are thus determined by using efficiency curves obtained with the points relative to the range.
The expression levels of the genes of interest were then normalized, in the hepatic tissue with respect to the level expression of reference gene 36B4 (whose specific primers are: sense primer: 5′-[…]-3′ (SEQ ID NO: 15) and antisense primer: 5′-[…]-3′ (SEQ ID NO: 16)), and in the adipose tissue with respect to reference gene 18S (whose specific primers are: sense primer: 5′-[…]-3′ (SEQ ID NO: 17) and antisense primer: 5′-[…]-3′ (SEQ ID NO: 18)). The induction factor was then calculated for each sample. The higher the induction factor is, the more the compound promotes gene expression. The final result is represented as the average of the induction values within each experimental group.

A further data set has as its target T2, hPPARα (Homo sapiens, UniProt Q07869).
T2 construct: DNA fragments amplified by PCR and corresponding to the DEF domains of human PPARα, PPARγ, and PPARδ nuclear receptors; expressed in transfected cells; host or cells: COS-7
T2 sequence (Q07869 239-466 limits assumed): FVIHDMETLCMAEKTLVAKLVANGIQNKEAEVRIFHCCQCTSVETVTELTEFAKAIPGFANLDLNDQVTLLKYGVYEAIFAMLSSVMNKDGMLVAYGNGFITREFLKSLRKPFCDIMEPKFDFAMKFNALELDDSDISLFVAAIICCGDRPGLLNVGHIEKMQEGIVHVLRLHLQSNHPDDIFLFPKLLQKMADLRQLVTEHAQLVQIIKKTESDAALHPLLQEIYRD
As to the kind of experiment: Gal4-hPPARα transactivation in COS-7 cells (luciferase). Format: cell-based. To be noted: COS-7 cells transfected pGal4-hPPAR, 0.01 to 100 μM. The protocol:
(§1) The activation of PPARs was evaluated in vitro using a monkey kidney fibroblast line (COS-7) by measuring the transcriptional activity of chimeras made up of the DNA binding domain of the Gal4 transcription factor of yeast and of the binding domain to the ligand of the different PPARs. The compounds were tested at doses of between 0.01 and 100 μM on Gal4-PPARα, γ, and δ chimeras.
(§2) COS-7 cells came from ATCC (American type culture collection) and were cultivated in a DMEM medium supplemented with 10% (vol/vol) of fetal calf serum, 100 U/ml of penicillin (Gibco, Paisley, UK) and 2 mM of L-Glutamine (Gibco, Paisley, UK). The cells were incubated at 37° C. under humid atmosphere containing 5% CO2.
(§3) The plasmids Gal4(RE)_TkpGL3, pGal4-hPPARα, pGal4-hPPARγ, pGal4-hPPARδ and pGal4-φ have been described in the literature (Raspe E et al., 1999). The constructions pGal4-hPPARα, pGal4-hPPARγ, and pGal4-hPPARδ were obtained by cloning, in the pGal4-φ vector, DNA fragments amplified by PCR and corresponding to the DEF domains of human PPARα, PPARγ, and PPARδ nuclear receptors.
(§4) The COS-7 cells in suspension were transfected with 150 ng of DNA per well, with a pGal4-PPAR/Gal4(RE)_TkpGL3 ratio of 1/10, in presence of 10% fetal calf serum. The cells were then plated in 96-well plates (4×10^4 cells/well), then incubated for 24 hours at 37° C. Activation with the test compounds was performed for 24 hours at 37° C. in a medium without serum. At the end of the experiment, the cells were lysed and the luciferase activity was determined using the Steady-Lite™ HTS (Perkin Elmert) or the Steady Glow Luciferase kit (Promega), in accordance with the provider's recommendations.
(§5) The compounds according to the invention were tested at doses between 0,01 and 100 μM on the 3 PPAR isoforms. The results obtained are presented in detail under FIG. 1a.

For a further data set, the target named is T3, hPPARγ (Homo sapiens, UniProt P37231).
T3 construct: DNA fragments amplified by PCR and corresponding to the DEF domains of human PPARα, PPARγ, and PPARδ nuclear receptors; expressed in transfected cells; host or cells: COS-7
T3 sequence (P37231 238-503 limits assumed): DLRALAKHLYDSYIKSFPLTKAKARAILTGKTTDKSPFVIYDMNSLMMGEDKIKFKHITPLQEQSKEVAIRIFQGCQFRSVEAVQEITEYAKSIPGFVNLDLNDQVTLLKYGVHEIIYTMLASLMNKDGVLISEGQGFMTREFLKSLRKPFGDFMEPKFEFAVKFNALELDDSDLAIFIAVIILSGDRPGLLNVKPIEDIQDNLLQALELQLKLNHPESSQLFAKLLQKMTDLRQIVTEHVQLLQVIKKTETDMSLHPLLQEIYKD
Put plainly: Gal4-hPPARγ transactivation in COS-7 cells (luciferase). The data set is classed as cell-based. Particulars: COS-7 cells transfected pGal4-hPPAR, 0.01 to 100 μM. As to the method:
as §1, §2, §3, §4, §5

As for `CCCCC1=NC2(CCCCC2)C(=O)N1Cc1ccc(-c2cccc(OC(C)C(=O)O)c2)cc1` (centres unmarked) [Compound 53], the melting point was determined as 85 °C. Further, in data set [1], the “agonist activity (contraction)” value is on record as “do not induce contraction” and the “antagonist activity (inhibition of contractile response to angiotensin II)” value is on record as “inhibiting effect of the contractile response of the reference agonist”.

For `CCCCC1=NC2(CCCC2)C(=O)N1Cc1ccc(-c2cc(OC(C)(C)C(=O)O)ccc2CC)cc1` [Compound 80, 2-butyl-1-[(3′-((1-carboxy-1,1-dimethylmethyl)oxy)-6′-ethyl-biphenyl-4-yl)methyl]-4-spirocyclopentyl-1H-imidazol-5(4H)-one], the melting point turned out to be 143 °C. In data set [1], the “agonist activity (contraction)” value was “do not induce contraction” and the “antagonist activity (inhibition of contractile response to angiotensin II)” value is listed as “inhibiting effect of the contractile response of the reference agonist”.

Compound `CCCCC1=NC2(CCCC2)C(=O)N1Cc1ccc(-c2ccc(OC(C)(C)C(=O)O)cc2)cc1` [Compound 2, 2-butyl-1-[(4′-((1-carboxy-1,1-dimethylmethyl)oxy)biphenyl-4-yl)methyl]-4-spirocyclopentyl-1H-imidazol-5(4H)-one] came in with a melting point of 180 °C. Besides, in the data set on PPARs target genes, the “hepatic expression of the gene coding for CPT1 b” value is “significant increase” and the “hepatic expression of the gene coding for PDK-4” value was “significant increase”. In the data set with PPARs target genes (liver), the “expression of the gene coding for ApoCIII” value is recorded as “significant decrease” and the “expression of the gene coding for FBb” value is listed as “significant decrease”.

As to `CCCCC1=NC2(CCCCC2)C(=O)N1Cc1ccc(-c2ccc(OC(C)(C)C(=O)O)cc2)cc1` [Compound 25, 2-butyl-1-[(4′-((1-carboxy-1,1-dimethylmethyl)oxy)biphenyl-4-yl)methyl]-4-spirocyclohexyl-1H-imidazol-5(4H)-one], the melting point was in the range of 75 to 77 °C. For the same compound, at hPPARα, the “activation of hPPARα (luciferase activity)” value is “activates only hPPARα”. In addition, the “activation of hPPARγ (luciferase activity)” value on hPPARγ is “activates only hPPARα”.

For orientation: melting point means the temperature of the solid-liquid transition.
